Earlier results in patent US8158685B2, “Method for bone growth” (priority 2004, dated 2012).

Legend:
spine = details: immediate-release form, 75 mg/day with calcium carbonate over 4 years
bone graft = details: fluoride alone added to bone graft material

Row | SMILES | bone density increase (spine) [%] | effect on spinal fractures (spine) | improvement/increase in bone density (bone graft) [%]
1 | [F-].[Na+] [sodium fluoride] | 35 | failed to reduce spinal fractures | 
2 | F [fluoride] |  |  | 20
